Source: patent US11339192B2, “Bicyclic peptidyl inhibitors” (priority 2017, dated 2022)
Where two headings read alike, the source gives them in different places. Each block holds one compound with its values, some of them ahead of it. Numbered stars: 1 amine (or outer) side, 2 acyl side, 3 side chain; on linkers, the order of the positions; unused ones are H or OH. Bridge positions count the residues as written; N and C are the ends. Square brackets hold non-standard residues; d marks the D form. Peptide text beside a SMILES is read from it. Trimesoyl = O=C(c1cc(C(=O)[*:2])cc(C(=O)[*:3])c1)[*:1]; 2Nal = N[C@@H](Cc1ccc2ccccc2c1)C(=O)O; Dap = NC[C@H](N)C(=O)O; βAla = NCCC(=O)O

What was measured:
[1] = tested on: HeLa cells; assay: Cellular uptake of FITC-labeled peptides by flow cytometry; conditions: for Permeability (%), cellular uptake efficiency: FITC-labeled peptide 5 μM, 2 h, relative to CPP1 (100%); for Permeability (%), cellular uptake efficiency / cellular entry efficiency (in words): HeLa cells; for cellular entry efficiency (in words): flow cytometry
Method: (§1) For flow cytometry analysis, HeLa cells were seeded into 12-well plates (1.5×10^5 cells per well) 24 hours before treatment. The next day, 5 μM FITC-labeled peptide in DMEM containing 10% FBS was added to each well and allowed to incubate at 37° c. for 2 hours. […] This washing process was repeated once to remove any free compound and left over trypsin. The washed pellet was resuspended in DPBS with 1% FBS and analyzed on a BD LSR II flow cytometer. Data presented were the mean±SD of three independent experiments.

[2] = Proteolytic stability in human serum (analytical HPLC)
Method: The proteolytic stability of peptide 7 was assessed by incubation in human serum at 37° C. and quantitation of the remaining peptide as a function of time by analytical HPLC.

[3] = tested on: HeLa cells
Method: as §1

[4] = biological target: T1, NEMO-IKKβ interaction (Homo sapiens, UniProt Q9Y6K9); assay: HTRF assay of inhibition of the NEMO-IKKβ interaction; assay type: binding; conditions: for NEMO-binding affinity on Ala substitution (in words): alanine scan of peptide 7; for fold lower NEMO-binding affinity / potency: relative to peptide 7
T1 construct: cells were transformed with a pGEX4T3-NEMO(1-196) plasmid; made in house; host or cells: Escherichia coli BL21(DE3)
T1 sequence (Q9Y6K9 1-196): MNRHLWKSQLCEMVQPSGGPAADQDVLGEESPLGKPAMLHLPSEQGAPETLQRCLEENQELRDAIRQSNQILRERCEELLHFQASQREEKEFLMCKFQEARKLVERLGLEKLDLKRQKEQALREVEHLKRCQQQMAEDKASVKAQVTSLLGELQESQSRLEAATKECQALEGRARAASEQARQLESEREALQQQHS

[5] = tested on: A2780 cells; assay: MTT cell viability assay, A2780; assay type: cell-based; conditions: 72 hours
Method: For the MTT cell viability assay, HeLa, HEK293, A2780, OSE or A375 cells were seeded into a 96-well microplate (3000 cells/well) in 100 μl of respective growth media and incubated at 37° c. overnight. The next day, a serial dilution of peptide was added to each well in 10 μL of assay medium. The treated cells were incubated at 37° c. with 5% CO2 for 72 hours. Following compound treatment, 10 μL of MTT stock solution (Roche) was added to each well. After an additional 4 h at 37° C., 100 μL of SDS-HCl solubilizing solution was added to each well and the plate was returned to the incubator overnight at 37° c. A Tecan Infinite M1000 Pro microplate reader was used the following morning to measure the absorbance of the formazan product at 565 nm.

[6] = tested on: NF-κB activation in HEK293(Luc) cells; assay: NF-κB luciferase assay; assay type: cell-based
Method: The ability of the bicyclic peptidyl inhibitors to inhibit NF-κB Signaling was analyzed. The ability of peptide 7 to enter the cell and block the intracellular NEMO-IKK interaction was assessed by using HEK293(Luc) cells, which harbor a luciferase gene under the transcriptional control of NF-κB. For the NF-κB Luciferase Assays, culture media was exchanged for DMEM containing 10% FBS and 1% penicillin/streptomycin the day before seeding to remove hygromycin B. HEK293(Luc) cells were seeded in 50 μL of assay medium (DMEM, 10% FBS, and 1% penicillin/streptomycin) in an opaque 96-well microplate (3000 cells per well) and incubated overnight. The peptide inhibitors were added to the cells the next day in 5 μL of assay medium and the plate was incubated at 37° c. for 2 h. After that, 5 μL of assay media containing recombinant TNFα (final concentration 5 ng/mL) was added to the wells. The plate was then returned to the incubator for 4 h at 37° c. Finally, 50 μL of ONE-Step luciferase assay reagent was added to each well and after 10 minutes the luminescence was measured on a Tecan Infinite M1000 Pro microplate reader. Data presented were the mean±SD of at least three independent experiments (n=6 for basal activities).

SMILES: CC[C@H](C)[C@H](NC(=O)[C@H](CCCCN)NC(=O)[C@@H](NC(=O)[C@H](CCC(N)=O)NC(=O)[C@@H](N)CCCNC(=N)N)[C@@H](C)CC)C(=O)N[C@@H](Cc1c[nH]c2ccccc12)C(=O)N[C@@H](Cc1ccccc1)C(=O)N[C@@H](CCC(N)=O)C(=O)N[C@@H](CC(N)=O)C(=O)N[C@@H](CCCNC(=N)N)C(=O)N[C@@H](CCCNC(=N)N)C(=O)N[C@@H](CCSC)C(=O)N[C@@H](CCCCN)C(=O)N[C@@H](Cc1c[nH]c2ccccc12)C(=O)N[C@@H](CCCCN)C(=O)N[C@@H](CCCCN)C(=O)NCC(=O)NCC(=O)N[C@H](C(=O)N[C@@H](C)C(=O)N[C@@H](CC(C)C)C(=O)N[C@@H](CC(=O)O)C(=O)N[C@@H](Cc1c[nH]c2ccccc12)C(=O)N[C@@H](CO)C(=O)N[C@@H](Cc1c[nH]c2ccccc12)C(=O)N[C@@H](CC(C)C)C(=O)N[C@@H](CCC(N)=O)C(=O)N[C@H](C(=O)N[C@@H](CCC(=O)O)C(=O)O)[C@@H](C)O)[C@@H](C)O [Peptide 1, reference compound]
- Permeability (%), cellular uptake efficiency [1]: 35%
- half-life [2]: ~20 min

- Permeability (%), cellular uptake efficiency [1]: 76%
SMILES: CC[C@H](C)[C@@H]1NC(=O)[C@H](Cc2c[nH]c3ccccc23)NC(=O)CNC(=O)c2cc3cc(c2)C(=O)NC[C@H](NC(=O)[C@H](Cc2ccc(O)cc2)NC1=O)C(=O)N[C@@H](Cc1ccccc1)C(=O)N[C@@H](Cc1ccc2ccccc2c1)C(=O)N[C@@H](CCCNC(=N)N)C(=O)N[C@@H](CCCNC(=N)N)C(=O)N[C@@H](CCCNC(=N)N)C(=O)N[C@H](C(=O)NCCC(=O)NCCC(=O)N[C@@H](CCCCN)C(=O)O)CNC3=O [Peptide 2, Tm(GWIY)Δ(FΦRRRΔ)-BBK] (GWIY[Dap]F[2Nal]RRR[Dap][βAla][βAla]K-OH; linker N-5-11 via Trimesoyl; C-terminus assumed)

SMILES: CC[C@H](C)[C@@H]1NC(=O)[C@H](Cc2c[nH]c3ccccc23)NC(=O)CNC(=O)c2cc3cc(c2)C(=O)NC[C@H](NC(=O)[C@H](Cc2ccc(O)cc2)NC1=O)C(=O)N[C@@H](Cc1ccccc1)C(=O)N[C@@H](Cc1ccc2ccccc2c1)C(=O)N[C@@H](CCCNC(=N)N)C(=O)N[C@@H](CCCNC(=N)N)C(=O)N[C@@H](CCCNC(=N)N)C(=O)N[C@@H](CCCNC(=N)N)C(=O)N[C@H](C(=O)NCCC(=O)NCCC(=O)N[C@@H](CCCCN)C(=O)O)CNC3=O [Peptide 3, Tm(GWIY)Δ(FΦRRRRΔ)-BBK] (GWIY[Dap]F[2Nal]RRRR[Dap][βAla][βAla]K-OH; linker N-5-12 via Trimesoyl; C-terminus assumed)
- cellular entry efficiency (in words) [3]: slightly decreased the cellular entry efficiency

- Permeability (%), cellular uptake efficiency [1]: 71%
SMILES: CC[C@H](C)[C@@H]1NC(=O)[C@H](Cc2c[nH]c3ccccc23)NC(=O)CNC(=O)c2cc3cc(c2)C(=O)NC[C@H](NC(=O)[C@H](Cc2ccc(O)cc2)NC1=O)C(=O)N[C@@H](Cc1ccccc1)C(=O)N[C@@H](Cc1ccc2ccccc2c1)C(=O)N[C@@H](CCCNC(=N)N)C(=O)N[C@@H](CCCNC(=N)N)C(=O)N[C@@H](CCCNC(=N)N)C(=O)N[C@H](C(=O)N[C@@H](CCCNC(=N)N)C(=O)NCCC(=O)N[C@@H](CCCCN)C(=O)O)CNC3=O [Peptide 4, Tm(GWIY)Δ(FΦRRRΔ)-RBK] (GWIY[Dap]F[2Nal]RRR[Dap]R[βAla]K-OH; linker N-5-11 via Trimesoyl; C-terminus assumed)
- cellular entry efficiency (in words) [1]: slightly decreased the cellular entry efficiency

- Permeability (%), cellular uptake efficiency [1]: 71%
SMILES: CC[C@H](C)[C@@H]1NC(=O)[C@H](Cc2c[nH]c3ccccc23)NC(=O)CNC(=O)c2cc3cc(c2)C(=O)NC[C@@H](C(=O)N[C@H](CCCNC(=N)N)C(=O)NCCC(=O)N[C@@H](CCCCN)C(=O)O)NC(=O)[C@H](CCCNC(=N)N)NC(=O)[C@H](CCCNC(=N)N)NC(=O)[C@H](CCCNC(=N)N)NC(=O)[C@H](Cc2ccc4ccccc4c2)NC(=O)[C@H](Cc2ccccc2)NC(=O)[C@H](CNC3=O)NC(=O)[C@H](Cc2ccc(O)cc2)NC1=O [Peptide 5, Tm(GWIY)Δ(FΦRRRΔ)-rBK] (GWIY[Dap]F[2Nal]RRR[Dap][dR][βAla]K-OH; linker N-5-11 via Trimesoyl; C-terminus assumed)
- cellular entry efficiency (in words) [1]: slightly decreased the cellular entry efficiency

- Permeability (%), cellular uptake efficiency [1]: 322%
- increase of uptake efficiency ([1]; second arginine replaced with D-arginine, versus peptide 2): 4.2 fold
SMILES: CC[C@H](C)[C@@H]1NC(=O)[C@H](Cc2c[nH]c3ccccc23)NC(=O)CNC(=O)c2cc3cc(c2)C(=O)NC[C@H](NC(=O)[C@H](Cc2ccc(O)cc2)NC1=O)C(=O)N[C@@H](Cc1ccccc1)C(=O)N[C@@H](Cc1ccc2ccccc2c1)C(=O)N[C@@H](CCCNC(=N)N)C(=O)N[C@H](CCCNC(=N)N)C(=O)N[C@@H](CCCNC(=N)N)C(=O)N[C@H](C(=O)NCCC(=O)NCCC(=O)N[C@@H](CCCCN)C(=O)O)CNC3=O [Peptide 6, Tm(GWIY)Δ(FΦRrRΔ)-BBK] (GWIY[Dap]F[2Nal]R[dR]R[Dap][βAla][βAla]K-OH; linker N-5-11 via Trimesoyl; C-terminus assumed)

SMILES: CC[C@H](C)[C@@H]1NC(=O)[C@H](Cc2c[nH]c3ccccc23)NC(=O)CNC(=O)c2cc3cc(c2)C(=O)NC[C@@H](C(=O)NCCC(=O)NCCC(=O)N[C@@H](CCCCN)C(=O)O)NC(=O)[C@H](CCCNC(=N)N)NC(=O)[C@@H](CCCNC(=N)N)NC(=O)[C@H](CCCNC(=N)N)NC(=O)[C@H](Cc2ccc4ccccc4c2)NC(=O)[C@H](C)NC(=O)[C@H](CNC3=O)NC(=O)[C@H](C)NC(=O)[C@H](Cc2ccc(O)cc2)NC1=O [Peptide 15, Tm(GWIYA)Δ(AΦRrRΔ)-BBK] (GWIYA[Dap]A[2Nal]R[dR]R[Dap][βAla][βAla]K-OH; linker N-6-12 via Trimesoyl; C-terminus assumed)
- NEMO-binding affinity on Ala substitution (in words) [4]: significantly de-creased the NEMO-binding affinity

SMILES: CC[C@H](C)[C@@H]1NC(=O)[C@H](Cc2c[nH]c3ccccc23)NC(=O)CNC(=O)c2cc3cc(c2)C(=O)NC[C@@H](C(=O)NCCC(=O)NCCC(=O)N[C@@H](CCCCN)C(=O)O)NC(=O)[C@H](CCCNC(=N)N)NC(=O)[C@@H](CCCNC(=N)N)NC(=O)[C@H](CCCNC(=N)N)NC(=O)[C@H](C)NC(=O)[C@H](Cc2ccccc2)NC(=O)[C@H](CNC3=O)NC(=O)[C@H](C)NC(=O)[C@H](Cc2ccc(O)cc2)NC1=O [Peptide 16, Tm(GWIYA)Δ(FARrRΔ)-BBK] (GWIYA[Dap]FAR[dR]R[Dap][βAla][βAla]K-OH; linker N-6-12 via Trimesoyl; C-terminus assumed)
- NEMO-binding affinity on Ala substitution (in words) [4]: significantly de-creased the NEMO-binding affinity

SMILES: CC[C@H](C)[C@@H]1NC(=O)[C@H](C)NC(=O)CNC(=O)c2cc3cc(c2)C(=O)NC[C@@H](C(=O)NCCC(=O)NCCC(=O)N[C@@H](CCCCN)C(=O)O)NC(=O)[C@H](CCCNC(=N)N)NC(=O)[C@@H](CCCNC(=N)N)NC(=O)[C@H](CCCNC(=N)N)NC(=O)[C@H](Cc2ccc4ccccc4c2)NC(=O)[C@H](Cc2ccccc2)NC(=O)[C@H](CNC3=O)NC(=O)[C@H](C)NC(=O)[C@H](C)NC1=O [Peptide 20, Tm(GAIAA)Δ(FΦRrRΔ)-BBK] (GAIAA[Dap]F[2Nal]R[dR]R[Dap][βAla][βAla]K-OH; linker N-6-12 via Trimesoyl; C-terminus assumed)
- activity on A2780 viability (in words) [5]: much less active than peptide 7
- fold lower NEMO-binding affinity / potency [4]: 16 fold
- effect on TNFα-induced luciferase activity (in words) [6]: decreased the luciferase activity only at high concentrations

SMILES: C[C@@H]1NC(=O)CNC(=O)c2cc3cc(c2)C(=O)NC[C@@H](C(=O)NCCC(=O)NCCC(=O)N[C@@H](CCCCN)C(=O)O)NC(=O)[C@H](CCCNC(=N)N)NC(=O)[C@@H](CCCNC(=N)N)NC(=O)[C@H](CCCNC(=N)N)NC(=O)[C@H](Cc2ccc4ccccc4c2)NC(=O)[C@H](Cc2ccccc2)NC(=O)[C@H](CNC3=O)NC(=O)[C@H](C)NC(=O)[C@H](C)NC(=O)[C@H](C)NC1=O [Peptide 21, Tm(GAAAA)Δ(FΦRrRΔ)-BBK] (GAAAA[Dap]F[2Nal]R[dR]R[Dap][βAla][βAla]K-OH; linker N-6-12 via Trimesoyl; C-terminus assumed)
- activity on A2780 viability (in words) [5]: much less active than peptide 7
- fold lower NEMO-binding affinity / potency [4]: > 100 fold
- effect on TNFα-induced luciferase activity (in words) [6]: decreased the luciferase activity only at high concentrations
